Results on 31 compounds are retold here after US8703805B2 (Exelixis Patent Company LLC, priority 2005, dated 2014).

This assay concerns LXRα and/or LXRβ. The assay is described as follows: LXR/LXRE co-transfection assay (luciferase reporter, CV-1 cells). It counts as cell-based, human. Particulars: IC50 or EC50 for LXR (LXRα and/or LXRβ, not distinguished), tested as described in Example 109, CV-1 cells. The gist of the method:
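Luciferase readout after 20 h compound exposure at 37 °C in CV-1 cells transiently expressing human LXRα or LXRβ with RXRα and an LXRE-driven reporter. Dose-response over 8 points at ½-log spacing, 4 wells each, fitted for EC50/IC50; values average ≥3 independent experiments, efficacy as % of high control.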
The compound `CC(C)(O)c1cc(-c2ccc(-c3cccc(NS(C)(=O)=O)c3)cc2)n(-c2ccccc2Cl)n1` [Example 1309, N-{4′-[1-(2-chlorophenyl)-3-(1-hydroxy-1-methylethyl)-1H-pyrazol-5-yl]biphenyl-3-yl}methanesulfonamide] displayed an EC50 of 1 to 10 µM. Then `CC(C)(O)c1cc(-c2ccc(-c3cccc(NS(=O)(=O)C(F)(F)F)c3)cc2)n(-c2ccccc2Cl)n1` [Example 1310, N-{4′-[1-(2-chlorophenyl)-3-(1-hydroxy-1-methylethyl)-1H-pyrazol-5-yl]biphenyl-3-yl}-1,1,1-trifluoromethanesulfonamide], with 1 to 10 µM; and `CC(=O)Nc1cccc(-c2ccc(-c3cc(C(C)(C)O)nn3-c3ccccc3Cl)cc2)c1` [Example 1311, N-{4′-[1-(2-chlorophenyl)-3-(1-hydroxy-1-methylethyl)-1H-pyrazol-5-yl]biphenyl-3-yl}acetamide], with 1 to 10 µM; and `CS(=O)(=O)c1cccc(-c2ccc(-c3c(Br)c(C(F)(F)F)nn3-c3c(Cl)cccc3Cl)s2)c1` [Example 1313, 4-bromo-1-(2,6-dichlorophenyl)-5-{5-[3-(methylsulfonyl)phenyl]-2-thienyl}-3-(trifluoromethyl)-1H-pyrazole], with less than 1 µM. The value for `Cc1ccc(C)c(-n2nc(C(C)(C)O)cc2-c2ccc(-c3cccc(S(C)(=O)=O)c3)s2)c1` [Example 1314, 2-[1-(2,5-dimethylphenyl)-5-{5-[3-(methylsulfonyl)phenyl]-2-thienyl}-1H-pyrazol-3-yl]propan-2-ol] was less than 1 µM; that for `CCS(=O)(=O)c1cccc(-c2ccc(-c3cc(C(C)(C)O)nn3-c3ccccc3Cl)s2)c1` [Example 1316, 2-[1-(2-chlorophenyl)-5-{5-[3-(ethylsulfonyl)phenyl]-2-thienyl}-1H-pyrazol-3-yl]propan-2-ol] was 1 to 10 µM; that for `CC(C)(O)c1cc(-c2ccc(-c3cc(C(F)(F)F)nn3-c3c(Cl)cccc3Cl)s2)cc(S(C)(=O)=O)c1` [Example 1317, 2-[3-{5-[1-(2,6-dichlorophenyl)-3-(trifluoromethyl)-1H-pyrazol-5-yl]-2-thienyl}-5-(methylsulfonyl)phenyl]propan-2-ol] was less than 1 µM. Compound `CC(C)(O)c1cc(-c2ccc(-c3cc(C(F)(F)F)nn3-c3ccccc3Cl)s2)cc(S(C)(=O)=O)c1` [Example 1318, 2-[3-{5-[1-(2-chlorophenyl)-3-(trifluoromethyl)-1H-pyrazol-5-yl]-2-thienyl}-5-(methylsulfonyl)phenyl]propan-2-ol] displayed a half-maximal effective concentration (EC50) of less than 1 µM. The value for `CC(C)(O)c1nn(-c2ccccc2Cl)c(-c2ccc(-c3cccc(S(C)(=O)=O)c3)s2)c1F` [Example 1319, 2-[1-(2-chlorophenyl)-4-fluoro-5-{5-[3-(methylsulfonyl)phenyl]-2-thienyl}-1H-pyrazol-3-yl]propan-2-ol] was less than 1 µM; that for `CC(C)(O)c1cc(-c2ccc(-c3cccc(S(C)(=O)=O)c3)s2)n(-c2ccccc2Br)n1` [Example 1320, 2-[1-(2-bromophenyl)-5-{5-[3-(methylsulfonyl)phenyl]-2-thienyl}-1H-pyrazol-3-yl]propan-2-ol] was less than 1 µM; that for `CC(C)(O)c1cc(-c2ccc(-c3cccc(S(C)(=O)=O)c3)s2)n(-c2cc(F)ccc2F)n1` [Example 1322, 2-[1-(2,5-difluorophenyl)-5-{5-[3-(methylsulfonyl)phenyl]-2-thienyl}-1H-pyrazol-3-yl]propan-2-ol] was 1 to 10 µM. The value for `CC(C)(O)c1cc(-c2ccc(-c3cccc(S(C)(=O)=O)c3)s2)n(-c2cc(Cl)cc(Cl)c2)n1` [Example 1323, 2-[1-(3,5-dichlorophenyl)-5-{5-[3-(methylsulfonyl)phenyl]-2-thienyl}-1H-pyrazol-3-yl]propan-2-ol] was 1 to 10 µM; that for `CC(C)(O)c1cc(-c2ccc(-c3cccc(S(C)(=O)=O)c3)s2)n(-c2ccc(Cl)c(Cl)c2)n1` [Example 1324, 2-[1-(3,4-dichlorophenyl)-5-{5-[3-(methylsulfonyl)phenyl]-2-thienyl}-1H-pyrazol-3-yl]propan-2-ol] was 1 to 10 µM.

For `Cc1ccc(Cl)c(-n2nc(C(C)(C)O)cc2-c2ccc(-c3cccc(S(C)(=O)=O)c3)s2)c1Cl` [Example 1325, 2-[1-(2,6-dichloro-3-methylphenyl)-5-{5-[3-(methylsulfonyl)phenyl]-2-thienyl}-1H-pyrazol-3-yl]propan-2-ol], the EC50 was less than 1 µM. The value for `CC(C)(O)c1cc(-c2ccc(-c3cccc(S(C)(=O)=O)c3)s2)n(-c2cccc(F)c2F)n1` [Example 1326, 2-[1-(2,3-difluorophenyl)-5-{5-[3-(methylsulfonyl)phenyl]-2-thienyl}-1H-pyrazol-3-yl]propan-2-ol] was less than 1 µM.

Regarding `CC(C)(O)c1cc(-c2ccc(-c3cccc(S(C)(=O)=O)c3)s2)n(-c2ccccc2OC(F)(F)F)n1` [Example 1327, 2-(5-{5-[3-(methylsulfonyl)phenyl]-2-thienyl}-1-(2-[(trifluoromethyl)oxy]phenyl}-1H-pyrazol-3-yl)propan-2-ol], the EC50 was less than 1 µM. The value for `CC(C)(O)c1cc(-c2ccc(-c3cccc(S(C)(=O)=O)c3)s2)n(-c2cccc(Cl)c2F)n1` [Example 1328, 2-[1-(3-chloro-2-fluorophenyl)-5-{5-[3-(methylsulfonyl)phenyl]-2-thienyl}-1H-pyrazol-3-yl]propan-2-ol] was less than 1 µM. As to `CCc1ccccc1-n1nc(C(C)(C)O)cc1-c1ccc(-c2cccc(S(C)(=O)=O)c2)s1` [Example 1329, 2-[1-(2-ethylphenyl)-5-{5-[3-(methylsulfonyl)phenyl]-2-thienyl}-1H-pyrazol-3-yl]propan-2-ol], the concentration for a half-maximal effect (EC50) was less than 1 µM. `CCCc1ccccc1-n1nc(C(C)(C)O)cc1-c1ccc(-c2cccc(S(C)(=O)=O)c2)s1` [Example 1330, 2-[5-{5-[3-(methylsulfonyl)phenyl]-2-thienyl}-1-(2-propylphenyl)-1H-pyrazol-3-yl]propan-2-ol] showed an EC50 of less than 1 µM. Then `Cc1ccc(F)cc1-n1nc(C(C)(C)O)cc1-c1ccc(-c2cccc(S(C)(=O)=O)c2)s1` [Example 1331, 2-[1-(5-fluoro-2-methylphenyl)-5-{5-[3-(methylsulfonyl)phenyl]-2-thienyl}-1H-pyrazol-3-yl]propan-2-ol], with less than 1 µM. In turn, `CC(C)c1cccc(-c2ccc(-c3cc(C(C)(C)O)nn3-c3ccccc3Cl)s2)c1` [Example 1332, 2-[1-(2-chlorophenyl)-5-{5-[3-(1-methylethyl)phenyl]-2-thienyl}-1H-pyrazol-3-yl]propan-2-ol] came in with a concentration for a half-maximal effect (EC50) of 1 to 10 µM.

`CC(C)(O)c1cc(-c2ccc(-c3cccc(S(C)(=O)=O)c3)s2)n(-c2cccc(C(F)(F)F)c2F)n1` [Example 1333, 2-(1-[2-fluoro-3-(trifluoromethyl)phenyl]-5-{5-[3-(methylsulfonyl)phenyl]-2-thienyl}-1H-pyrazol-3-yl)propan-2-ol] registered a half-maximal effective concentration (EC50) of 1 to 10 µM. Then `CC(C)(O)c1cc(-c2ccc(-c3cccc(S(C)(=O)=O)c3)s2)n(-c2cc(F)ccc2Cl)n1` [Example 1334, 2-[1-(2-chloro-5-fluorophenyl)-5-{5-[3-(methylsulfonyl)phenyl]-2-thienyl}-1H-pyrazol-3-yl]propan-2-ol], with less than 1 µM; and `Cc1cccc(Cl)c1-n1nc(C(C)(C)O)cc1-c1ccc(-c2cccc(S(C)(=O)=O)c2)s1` [Example 1335, 2-[1-(2-chloro-6-methylphenyl)-5-{5-[3-(methylsulfonyl)phenyl]-2-thienyl}-1H-pyrazol-3-yl]propan-2-ol], with less than 1 µM; and `CC(C)(O)c1cc(-c2ccc(-c3cccc(S(C)(=O)=O)c3)s2)n(-c2cc(Cl)ccc2F)n1` [Example 1336, 2-[1-(5-chloro-2-fluorophenyl)-5-{5-[3-(methylsulfonyl)phenyl]-2-thienyl}-1H-pyrazol-3-yl]propan-2-ol], with less than 1 µM. Then `C/C(=N\OCCN(C)C)c1cc(-c2ccc(-c3cccc(S(C)(=O)=O)c3)s2)n(-c2ccccc2Cl)n1` [Example 1337, (1E)-1-[1-(2-chlorophenyl)-5-{5-[3-(methylsulfonyl)phenyl]-2-thienyl}-1H-pyrazol-3-yl]ethanone O-[2-(dimethylamino)ethyl]oxime], with less than 1 µM; and `CC(C)(O)c1cc(-c2ccc(-c3cccc(S(C)(=O)=O)c3)s2)n(-c2cccc(C(F)(F)F)c2O)n1` [Example 1338, 2-[3-(1-hydroxy-1-methylethyl)-5-{5-[3-(methylsulfonyl)phenyl]-2-thienyl}-1H-pyrazol-1-yl]-6-(trifluoromethyl)phenol], with 1 to 10 µM; and `Cc1c(Cl)cccc1-n1nc(C(C)(C)O)cc1-c1ccc(-c2cccc(S(C)(=O)=O)c2)s1` [Example 1340, 2-[1-(3-chloro-2-methylphenyl)-5-{5-[3-(methylsulfonyl)phenyl]-2-thienyl}-1H-pyrazol-3-yl]propan-2-ol], with less than 1 µM.

Take `CC(C)(O)c1cc(-c2ccc(-c3cccc(S(C)(=O)=O)c3)s2)n(-c2c(Cl)cc(Cl)cc2C(F)(F)F)n1` [Example 1341, 2-(1-[2,4-dichloro-6-(trifluoromethyl)phenyl]-5-{5-[3-(methylsulfonyl)phenyl]-2-thienyl}-1H-pyrazol-3-yl)propan-2-ol]: the EC50 fell in the range of 1 to 10 µM.

`CC(C)(O)c1cc(-c2ccc(-c3cccc(S(C)(=O)=O)c3)s2)n(-c2cccc3c2OC(F)(F)O3)n1` [Example 1342, 2-[1-(2,2-difluoro-1,3-benzodioxol-4-yl)-5-{5-[3-(methylsulfonyl)phenyl]-2-thienyl}-1H-pyrazol-3-yl]propan-2-ol] registered a half-maximal effective concentration (EC50) of less than 1 µM. Then `CC(C)(O)c1cc(-c2ccc(-c3cccc(S(C)(=O)=O)c3)s2)n(-c2ccncc2)n1` [Example 1343, 2-(5-{5-[3-(methylsulfonyl)phenyl]-2-thienyl}-1-pyridin-4-yl-1H-pyrazol-3-yl)propan-2-ol], with 1 to 10 µM.
